One assay addresses T1, V19CB (Homo sapiens, UniProt P40337).
T1 construct: made in house
Briefly: Size-exclusion chromatography (SEC) of complex formation with V19CB. In kind it is binding. The note with it: VCB 50 µM, compound 30 µM. How it is done: (§1) Protein expression and purification. Human proteins VHL (UniProt accession number: P40337), ElonginC (Q15369), and ElonginB (Q15370) were used for all protein expression. The short-isoform-containing VCB complex (V19CB) was expressed, purified and stored as described previously. For expression of the long-isoform-containing VCB complex (V30CB), N-terminally His6-tagged VHL (1–213), ElonginC (17–112) and ElonginB (1–104) were co-expressed in Escherichia coli BL21(DE3) at 20 °C for 18 h using 0.5 mM isopropyl β-D-1-thiogalactopyranoside (IPTG). E. coli cells were resuspended in binding buffer (50 mM HEPES, pH 8.0, 500 mM NaCl, 10 mM imidazole and 5 mM β-mercaptoethanol), lysed using a pressure cell homogenizer (Stansted Fluid Power), and lysate clarified by centrifugation. The supernatant was loaded onto a HisTrap FF affinity column (GE Healthcare) equilibrated with binding buffer, and bound protein was eluted using an imidazole gradient. The His6 tag was removed using thrombin protease (Sigma), and the untagged complex was dialyzed into binding buffer. V30CB was then loaded onto the HisTrap FF column a second time, allowing impurities to bind as the complex eluted without binding. The flow-through was dialyzed using a low-salt buffer (20 mM HEPES, pH 8.0, 25 mM NaCl and 1 mM DTT) and then loaded onto a Resource Q anion exchange column (GE Healthcare); bound protein was eluted across a linear NaCl gradient. V30CB was then additionally purified by size-exclusion chromatography using a Superdex-75 16/600 column (GE Healthcare) equilibrated with 20 mM HEPES, pH 7.5, 100 mM sodium chloride and 1 mM TCEP. All chromatography purification steps were performed using Äkta FPLC purification systems (GE Healthcare).
Size-exclusion chromatography (SEC). SEC experiments were carried out in a ÄKTA pure system (GE Healthcare) at room temperature. The oligomeric state of the VCB complex in solution was analyzed by gel filtration in a buffer containing 20 mM Bis-Tris (pH 7), 150 mM NaCl and 1 mM 1,4-dithiothreitol (DTT) using a Superdex 200 Increase 10/300 GL column (GE Healthcare) calibrated with globular proteins of known molecular weight (GE Healthcare, 28-4038-41/42). […] Sample volume for each injection was 200 µl, and the flow rate was 0.5 ml min^−1. Peak elution was monitored using ultraviolet absorbance at 280 nm.
(SEC sorts molecules by how far they enter the pores of the column.)

Assay [1] deals with T2, pVHL19 (Homo sapiens, UniProt P40337). Briefly: Isothermal titration calorimetry (ITC) against VCB complex with short VHL isoform (V19CB). Also on record: made in house. The note with it: ITC. In kind it is binding. How it is done: as §1
(§2) Isothermal titration calorimetry (ITC). Titrations were performed on an ITC200 micro-calorimeter (GE Healthcare). […] The final DMSO concentration was 0.15% v/v. VCB protein experiments were carried out in a buffer containing 20 mM Bis-tris propane, 150 mM NaCl, 1 mM TCEP, 0.15% v/v DMSO, pH 7.4. The titrations consisted of 19 injections of 2 µL compounds solution (150 µM, in the syringe) at a rate of 0.5 µl s^−1 at 120 s time intervals into the VCB protein solution (20 µM, in the cell). An initial injection of compound solution (0.4 µL) was made and discarded during data analysis. All experiments were performed at 25 °C, whilst stirring the syringe at 600 rpm. The data were fitted to a single binding site model to obtain the stoichiometry n, the dissociation constant K d and the enthalpy of binding ΔH using the Microcal LLC ITC200 Origin software provided by the manufacturer.
Target sequence in this assay (P40337 54-213): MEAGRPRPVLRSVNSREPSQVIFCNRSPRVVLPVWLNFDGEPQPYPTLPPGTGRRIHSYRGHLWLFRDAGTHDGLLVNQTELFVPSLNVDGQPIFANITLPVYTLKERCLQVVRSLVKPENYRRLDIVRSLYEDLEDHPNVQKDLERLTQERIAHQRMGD
Target sequence in this assay (Q15369 17-112 partner limits assumed): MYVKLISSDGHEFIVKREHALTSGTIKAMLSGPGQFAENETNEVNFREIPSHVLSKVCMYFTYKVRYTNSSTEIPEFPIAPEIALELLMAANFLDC
Target sequence in this assay (Q15370 1-104 partner limits assumed): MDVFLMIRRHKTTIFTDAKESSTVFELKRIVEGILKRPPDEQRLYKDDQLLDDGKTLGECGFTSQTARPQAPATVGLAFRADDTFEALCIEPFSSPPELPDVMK

Assay [2] has as its target T3, pVHL30 (Homo sapiens, UniProt P40337). Briefly: Immunoblot of pVHL30 protein level in HeLa cells after compound treatment. In kind it is cell-based. Further details: endogenous in cells; host or cells: HeLa. Conditions: 10 h; for depletion of target protein (pVHL30 / VHL) / remaining activity at 1 µM: 1 µM; for remaining activity at 1 µM: DMSO = 100, Fig. 4a; for remaining activity at 1 µM / remaining pVHL30 protein level at 1 µM: read-out: pVHL30 band quantification normalized to 0.1% DMSO. How it is done:
(§3) Cell culture. Human cell lines HeLa, U2OS and HEK 293, purchased from ATCC, were propagated in DMEM supplemented with 10% fetal bovine serum (FBS), L- glutamine, 100 μg ml^−1 of penicillin/streptomycin at 37 °C and 5% CO2. Cells were maintained for no more than 30 passages. All cell lines were routinely tested for mycoplasma contamination using MycoAlert kit from Lonza. For compound treatment experiments, cells were transferred in six-well plates with either 3 × 10^5 or 5 × 10^5 cells per well in 2 ml of media. At 80% confluence, cells were treated with compounds at the desired concentration, reaching final DMSO concentration of 0.1% v/v. Cells were incubated at 37 °C and 5% CO2 for the desired time before harvesting.
(§4) Immunoblotting. Cells were lysed in lysis buffer (20 mM Tris pH 8, 150 mM NaCl, 1% Triton × 100) and a protease inhibitor cocktail (Roche) per 10 ml buffer. For protein extracts, the dishes were placed on ice. The media was aspirated and the tissue layer washed twice with ice-cold phosphate buffer saline (PBS). Lysis buffer (120 μl) was added and the cells detached from the surface with a cell scraper. After removal of the insoluble fraction by centrifugation, the protein concentration of the supernatant was determined by Pierce™ Coomassie (Bradford) Protein Assay Kit. Protein extracts were fractionated by SDS-PAGE on 4–12% Tris-Acetate NuPage® Novex® (Life Technologies) polyacrylamide gels and transferred to a nitrocellulose membrane using wet transfer. The membrane was then blocked with 5 % w/v Bovine serum albumin (BSA) in Tris-buffered saline (TBS) with 0.1% w/v Tween-20. For detecting proteins the following primary antibodies in the given concentrations were used: anti-β-Actin (Cell Signaling Technology, 4970S, 13E5) 1:2000, anti-VHL (Cell Signaling Technology, #68547) 1:1000, anti-Hif-1α (BD Biosciences, 610959, clone 54) 1:1,000, anti-hydroxy-HIF-1α (Hyp564) (Cell Signaling Techonology; #3434) 1:1,000, anti-PHD2 (Bethyl Laboratories; A300-322A) 1:1,000, anti-PHD3 (Bethyl Laboratories; A300-327A) 1:1000, anti-CRBN (Proteintech; 11435-1-AP) 1:1,000. Following incubation with a horseradish peroxidase-conjugated secondary antibody (Cell Signaling Technology), the signal was developed using enhanced chemiluminescence (ECL) Western Blotting Detection Kit (Amersham) on Amersham Hyperfilm ECL film (Amersham). Band quantification was performed using ImageJ software and reported as relative amount as ratio of the each protein band relative to the lane’s loading control. The values obtained were then normalized to 0.1% DMSO vehicle control. See Supplementary Fig. 12 for full-scanned images of western-blots shown in the main text figures.
Target sequence in this assay (P40337 whole entry): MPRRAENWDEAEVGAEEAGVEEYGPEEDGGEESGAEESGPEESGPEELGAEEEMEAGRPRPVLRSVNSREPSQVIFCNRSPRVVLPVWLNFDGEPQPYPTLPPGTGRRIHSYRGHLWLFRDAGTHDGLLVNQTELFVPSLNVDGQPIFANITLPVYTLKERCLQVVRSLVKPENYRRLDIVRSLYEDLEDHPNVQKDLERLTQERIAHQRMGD
In general terms: In western blotting, separated proteins are transferred to a membrane and probed.

The target in assay [3] is T2, pVHL19. The assay is described as follows: Immunoblot of pVHL19 protein level in HeLa cells after compound treatment. In kind it is cell-based. Further details: endogenous in cells; host or cells: HeLa. The note with it: 10 h, read-out: pVHL19 band quantification normalized to 0.1% DMSO. On the procedure: as §3, §4
Target sequence in this assay (P40337 54-213): as the sequence (P40337 54-213) above
Target sequence in this assay (Q15369 whole entry partner, canonical isoform): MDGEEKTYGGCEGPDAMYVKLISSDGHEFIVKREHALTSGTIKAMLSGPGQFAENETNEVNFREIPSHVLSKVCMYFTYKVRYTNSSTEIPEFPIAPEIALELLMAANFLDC
Target sequence in this assay (Q15370 whole entry partner, canonical isoform): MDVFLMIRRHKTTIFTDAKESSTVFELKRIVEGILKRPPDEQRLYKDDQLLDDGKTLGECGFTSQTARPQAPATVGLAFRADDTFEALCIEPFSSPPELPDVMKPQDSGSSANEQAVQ
Assay [4] addresses T3, pVHL30. The assay is described as follows: Isothermal titration calorimetry (ITC) against VCB complex with long VHL isoform (V30CB). In kind it is binding. Further details: N-terminally His6-tagged VHL (1–213), ElonginC (17–112) and ElonginB (1–104) were co-expressed; His6 (N, cleaved yes); made in house; host or cells: Escherichia coli BL21(DE3). The note with it: 25 °C. How it is done:
as §1, §2
Target sequence in this assay (P40337 whole entry): as the sequence (P40337 whole entry) above
Target sequence in this assay (Q15369 17-112 partner limits assumed): as the sequence (Q15369 17-112 partner limits assumed) above
Target sequence in this assay (Q15370 1-104 partner limits assumed): as the sequence (Q15370 1-104 partner limits assumed) above
(In general: ITC needs no label: the signal is the heat of the interaction.)

Like-named read-outs stand apart in the source and are kept apart here.

T1 sequence (P40337 54-213): as the sequence (P40337 54-213) above
T1 sequence (Q15369 17-112 partner limits assumed): as the sequence (Q15369 17-112 partner limits assumed) above
T1 sequence (Q15370 1-104 partner limits assumed): as the sequence (Q15370 1-104 partner limits assumed) above

For `Cc1ncsc1-c1ccc(CNC(=O)[C@@H]2C[C@H](O)CN2C(=O)[C@@H](NC(=O)COCCOCCOCCOCCOCCOCC(=O)N[C@H](C(=O)N2C[C@@H](O)C[C@H]2C(=O)NCc2ccc(-c3scnc3C)cc2)C(C)(C)C)C(C)(C)C)cc1` [CMP98, N ^1 ,N ^20-bis((S)-1-((2S,4S)-4-hydroxy-2-((4-(4-methylthiazol-5-yl)benzyl)carbamoyl)pyrrolidin-1-yl)-3,3-dimethyl-1-oxobutan-2-yl)-3,6,9,12,15,18-hexaoxaicosanediamide], the “shift of VCB peak / ternary complex formation in SEC” value on V19CB is “No shift”. For the same compound, the “binding to VCB by ITC” value on pVHL19 [1] (qualitative) is reported as “binding was not detected”. For the same compound, at pVHL30 [2], the “depletion of target protein (pVHL30 / VHL)” value is recorded as “unable to induce degradation of VHL” and the remaining activity at 1 µM stood at 108%. Further, the remaining activity at 1 µM on pVHL19 [3] (1 µM, DMSO = 100, Fig. 4a) was determined as 104%.

What is called Kd is the concentration at which binding is half-saturated. High values mean lower affinity, low ones higher affinity. As to `Cc1ncsc1-c1ccc(CNC(=O)[C@H]2C[C@@H](O)CN2C(=O)[C@H](NC(=O)COCCOCCOCCOCCOCC(=O)N[C@H](C(=O)N2C[C@H](O)C[C@H]2C(=O)NCc2ccc(-c3scnc3C)cc2)C(C)(C)C)C(C)(C)C)cc1` [CMP99, N ^1-((R)-1-((2R,4R)-4-hydroxy-2-((4-(4-methylthiazol-5-yl)benzyl)carbamoyl)pyrrolidin-1-yl)-3,3-dimethyl-1-oxobutan-2-yl)-N ^17-((S)-1-((2S,4R)-4-hydroxy-2-((4-(4-methylthiazol-5-yl)benzyl)carbamoyl)pyrrolidin-1-yl)-3,3-dimethyl-1-oxobutan-2-yl)-3,6,9,12,15-pentaoxaheptadecanediamide], the “elution volume of small peak in SEC” value on V19CB came out at 13.5 mL. In addition, the “shift of VCB peak / ternary complex formation in SEC” value on V19CB was “No shift”. Besides, the ΔG result on pVHL19 [1] (25 °C, pVHL19) was “–9.33 ± 0.06 kcal mol^−1”; at pVHL30 [4] (pVHL30), “–9.51 ± 0.05 kcal mol^−1”. For the same compound, the ΔH entry is “–6.23 ± 0.05 kcal mol^−1” at pVHL19 [1] (25 °C, pVHL19) and “–5.19 ± 0.03 kcal mol^−1” at pVHL30 [4] (pVHL30). The “−TΔS” value on pVHL19 [1] (25 °C, pVHL19) is “–3.1 ± 0.7 kcal mol^−1”; on pVHL30 [4] (pVHL30), “–4.3 ± 0.1 kcal mol^−1”. Also, the dissociation constant (Kd) amounted to 146 ± 2 nM at pVHL19 [1] (25 °C, pVHL19 (V19CB)) and 106 ± 10 nM on pVHL30 [4] (pVHL30 (V30CB)). Moreover, the n is reported as 0.964 ± 0.005 at pVHL19 [1] (25 °C, stoichiometry of binding, pVHL19 (V19CB)) and 1.050 ± 0.004 at pVHL30 [4] (stoichiometry of binding, pVHL30 (V30CB)). Also, the “depletion of target protein (pVHL30 / VHL)” value at pVHL30 [2] is listed as “unable to induce degradation of VHL”. For the same compound, the remaining activity at 1 µM at pVHL30 [2] came out at 62%; on pVHL19 [3] (1 µM, DMSO = 100, Fig. 4a), 104%.

As to `CC(=O)N[C@H](C(=O)N1C[C@H](O)C[C@H]1C(=O)NCc1ccc(-c2scnc2C)cc1OCCOCCOCCOCCOCCOc1cc(-c2scnc2C)ccc1CNC(=O)[C@@H]1C[C@@H](O)CN1C(=O)[C@@H](NC(C)=O)C(C)(C)C)C(C)(C)C` [CMP106], the remaining pVHL30 protein level at 1 µM on pVHL30 [2] was found to be 114%. Besides, the remaining activity at 1 µM at pVHL19 [3] worked out at 93%.

On to `Cc1ncsc1-c1ccc(CNC(=O)[C@@H]2C[C@@H](O)CN2C(=O)[C@@H](NC(=O)C2(C#N)CC2)C(C)(C)C)c(OCCOCCOCCOCCOCCOc2cc(-c3scnc3C)ccc2CNC(=O)[C@@H]2C[C@@H](O)CN2C(=O)[C@@H](NC(=O)C2(C#N)CC2)C(C)(C)C)c1` [CMP108], for which the remaining activity at 1 µM at pVHL30 [2] was found to be 126%; at pVHL19 [3] (1 µM, DMSO = 100, Fig. 4a) it was 97%.

As for `CC(=O)N[C@H](C(=O)N1C[C@H](O)C[C@H]1C(=O)NCc1ccc(-c2scnc2C)cc1OCCOCCOCCOCCOCCOCC(=O)N[C@H](C(=O)N1C[C@H](O)C[C@H]1C(=O)NCc1ccc(-c2scnc2C)cc1)C(C)(C)C)C(C)(C)C` [CMP112], the remaining activity at 1 µM at pVHL30 [2] came out at 110%; at pVHL19 [3] (1 µM, DMSO = 100, Fig. 4a), 89%.

For `Cc1ncsc1-c1ccc(CNC(=O)[C@@H]2C[C@@H](O)CN2C(=O)[C@@H](NC(=O)COCCOCCOCCOCCOCCOc2cc(-c3scnc3C)ccc2CNC(=O)[C@@H]2C[C@@H](O)CN2C(=O)[C@@H](NC(=O)C2(C#N)CC2)C(C)(C)C)C(C)(C)C)cc1` [CMP113], the remaining pVHL30 protein level at 1 µM on pVHL30 [2] was 121%. Besides, on pVHL19 [3], the remaining activity at 1 µM is 111%.
